ChEMBL document CHEMBL3885861, “Open TG-GATES”

Organism: Rattus norvegicus
Test: Open TG-GATES - Regimen: Daily Repeat
Assay type: toxicity, organism-based, Sprague-Dawley
Set-up: regimen Daily Repeat, gender Male, age 6 weeks
Settings: in vivo, po, 30 mg/kg, route gavage, dose level Middle; for APTT / Bas / Eos / Fbg / Hb / Ht / Lym / MCH / MCHC / MCV / Mono / Neu / PT / Plat / RBC / Ret / WBC: tissue Blood; for KIDNEY_L / KIDNEY_R / KIDNEY_TOTAL: tissue Kidney; for LIVER: tissue Liver; for A/G / ALP / ALT / AST / BUN / CRE / Ca / Cl / DBIL / GLC / IP / K / LDH / Na / PL / RALB / TBIL / TC / TG / TP / gamma-GTP: tissue Plasma

`CCCc1cc(=O)[nH]c(=S)[nH]1` [PROPYLTHIOURACIL] was tested, and the TERMINAL_BW (72 h, time 3 day) was 205.6 g, the APTT (72 h, time 3 day) was 15.9 s and the Bas (72 h, time 3 day) was 0%. For the same molecule, the Eos (72 h, time 3 day) was 0.4%, the Fbg (72 h, time 3 day) was 242.4 mg/dL and the Hb (72 h, time 3 day) was 13.6 g/dL. It also gave a Ht (72 h, time 3 day) of 40.9%, a Lym (72 h, time 3 day) of 73% and an MCH (72 h, time 3 day) of 21.9 pg. It also gave an MCHC (72 h, time 3 day) of 33.3%, an MCV (72 h, time 3 day) of 65.7 fL and a Mono (72 h, time 3 day) of 7.4%. The Neu (72 h, time 3 day) was 19.2%, the PT (72 h, time 3 day) was 12.2 s and the Plat (72 h, time 3 day) was 114 x10_4/uL. It also gave an RBC (72 h, time 3 day) of 623 x10_4/ul, a Ret (72 h, time 3 day) of 6.7% and a WBC (72 h, time 3 day) of 122.6 x10_2/uL. It also gave a KIDNEY_L (72 h, time 3 day) of 0.9 g, a KIDNEY_R (72 h, time 3 day) of 0.9 g and a KIDNEY_TOTAL (72 h, time 3 day) of 1.8 g. The LIVER (72 h, time 3 day) was 11.4 g, the A/G (72 h, time 3 day) was 1.8 and the ALP (72 h, time 3 day) was 907.2 IU/L. It also gave an ALT (72 h, time 3 day) of 36 IU/L, an AST (72 h, time 3 day) of 64 IU/L and a BUN (72 h, time 3 day) of 18.2 mg/dL. It also gave a CRE (72 h, time 3 day) of 0.5 mg/dL, a Ca (72 h, time 3 day) of 11.3 mg/dL and a Cl (72 h, time 3 day) of 106 meq/L. It also gave a DBIL (72 h, time 3 day) of 0.024 mg/dL, a GLC (72 h, time 3 day) of 192 mg/dL and an IP (72 h, time 3 day) of 7.6 mg/dL. It also gave a K (72 h, time 3 day) of 4.6 meq/L, an LDH (72 h, time 3 day) of 150.8 IU/L and a Na (72 h, time 3 day) of 138.4 meq/L. It also gave a PL (72 h, time 3 day) of 183 mg/dL, an RALB (72 h, time 3 day) of 3.9 g/dL and a TBIL (72 h, time 3 day) of 0.3 mg/dL. For the same molecule, the TC (72 h, time 3 day) was 106.4 mg/dL, the TG (72 h, time 3 day) was 97 mg/dL and the TP (72 h, time 3 day) was 6 g/dL. For the same molecule, the gamma-GTP (72 h, time 3 day) was 1.2 IU/L, the TERMINAL_BW ([…], time 7 day) was 228.6 g and the TERMINAL_BW ([…], time 14 day) was 248.6 g. For the same molecule, the TERMINAL_BW ([…], time 28 day) was 242.7 g, the APTT ([…], time 7 day) was 16.2 s and the Bas ([…], time 7 day) was 0%. For the same molecule, the Eos ([…], time 7 day) was 0.2%, the Fbg ([…], time 7 day) was 264 mg/dL and the Hb ([…], time 7 day) was 13.7 g/dL. For the same molecule, the Ht ([…], time 7 day) was 40.3%, the Lym ([…], time 7 day) was 82.4% and the MCH ([…], time 7 day) was 21.5 pg. The MCHC ([…], time 7 day) was 34.1%, the MCV ([…], time 7 day) was 63.2 fL and the Mono ([…], time 7 day) was 8.4%. For the same molecule, the Neu ([…], time 7 day) was 9%, the PT ([…], time 7 day) was 12.9 s and the Plat ([…], time 7 day) was 122.5 x10_4/uL. The RBC ([…], time 7 day) was 638 x10_4/ul, the Ret ([…], time 7 day) was 3.7% and the WBC ([…], time 7 day) was 123.8 x10_2/uL. For the same molecule, the APTT ([…], time 14 day) was 16.6 s, the Bas ([…], time 14 day) was 0% and the Eos ([…], time 14 day) was 0.2%. For the same molecule, the Fbg ([…], time 14 day) was 204.2 mg/dL, the Hb ([…], time 14 day) was 14.8 g/dL and the Ht ([…], time 14 day) was 43.8%. It also gave a Lym ([…], time 14 day) of 86.2%, an MCH ([…], time 14 day) of 21 pg and an MCHC ([…], time 14 day) of 33.7%. It also gave an MCV ([…], time 14 day) of 62.2 fL, a Mono ([…], time 14 day) of 3.6% and a Neu ([…], time 14 day) of 10%. The PT ([…], time 14 day) was 13.8 s, the Plat ([…], time 14 day) was 89 x10_4/uL and the RBC ([…], time 14 day) was 705.4 x10_4/ul. For the same molecule, the Ret ([…], time 14 day) was 1.5%, the WBC ([…], time 14 day) was 134 x10_2/uL and the APTT ([…], time 28 day) was 15.1 s. The Bas ([…], time 28 day) was 0%, the Eos ([…], time 28 day) was 1% and the Fbg ([…], time 28 day) was 171 mg/dL. The Hb ([…], time 28 day) was 15.8 g/dL, the Ht ([…], time 28 day) was 46.9% and the Lym ([…], time 28 day) was 85.2%. The MCH ([…], time 28 day) was 19.5 pg, the MCHC ([…], time 28 day) was 33.7% and the MCV ([…], time 28 day) was 57.7 fL. For the same molecule, the Mono ([…], time 28 day) was 3%, the Neu ([…], time 28 day) was 10.8% and the PT ([…], time 28 day) was 14.2 s. The Plat ([…], time 28 day) was 82.1 x10_4/uL, the RBC ([…], time 28 day) was 813.2 x10_4/ul and the Ret ([…], time 28 day) was 0.6%. For the same molecule, the WBC ([…], time 28 day) was 63 x10_2/uL, the KIDNEY_L ([…], time 7 day) was 0.9 g and the KIDNEY_R ([…], time 7 day) was 0.9 g. It also gave a KIDNEY_TOTAL ([…], time 7 day) of 1.8 g, a KIDNEY_L ([…], time 14 day) of 0.9 g and a KIDNEY_R ([…], time 14 day) of 0.9 g. The KIDNEY_TOTAL ([…], time 14 day) was 1.9 g, the KIDNEY_L ([…], time 28 day) was 0.8 g and the KIDNEY_R ([…], time 28 day) was 0.8 g. The KIDNEY_TOTAL ([…], time 28 day) was 1.6 g, the LIVER ([…], time 7 day) was 12.4 g and the LIVER ([…], time 14 day) was 11.5 g. The LIVER ([…], time 28 day) was 9.6 g, the A/G ([…], time 7 day) was 1.7 and the ALP ([…], time 7 day) was 735.2 IU/L. It also gave an ALT ([…], time 7 day) of 31.6 IU/L, an AST ([…], time 7 day) of 54.8 IU/L and a BUN ([…], time 7 day) of 21.8 mg/dL. It also gave a CRE ([…], time 7 day) of 0.5 mg/dL, a Ca ([…], time 7 day) of 11.6 mg/dL and a Cl ([…], time 7 day) of 106 meq/L. The DBIL ([…], time 7 day) was 0.018 mg/dL, the GLC ([…], time 7 day) was 173.6 mg/dL and the IP ([…], time 7 day) was 6.8 mg/dL. The K ([…], time 7 day) was 4.6 meq/L, the LDH ([…], time 7 day) was 85.8 IU/L and the Na ([…], time 7 day) was 140.6 meq/L. For the same molecule, the PL ([…], time 7 day) was 170.6 mg/dL, the RALB ([…], time 7 day) was 4.2 g/dL and the TBIL ([…], time 7 day) was 0.3 mg/dL. The TC ([…], time 7 day) was 111.2 mg/dL, the TG ([…], time 7 day) was 80.2 mg/dL and the TP ([…], time 7 day) was 6.7 g/dL. For the same molecule, the gamma-GTP ([…], time 7 day) was 2.2 IU/L, the A/G ([…], time 14 day) was 1.7 and the ALP ([…], time 14 day) was 562.2 IU/L. For the same molecule, the ALT ([…], time 14 day) was 27.6 IU/L, the AST ([…], time 14 day) was 51.2 IU/L and the BUN ([…], time 14 day) was 24.2 mg/dL. It also gave a CRE ([…], time 14 day) of 0.7 mg/dL, a Ca ([…], time 14 day) of 11.5 mg/dL and a Cl ([…], time 14 day) of 106.8 meq/L. The DBIL ([…], time 14 day) was 0.004 mg/dL, the GLC ([…], time 14 day) was 180.6 mg/dL and the IP ([…], time 14 day) was 6.4 mg/dL. It also gave a K ([…], time 14 day) of 4 meq/L, an LDH ([…], time 14 day) of 70.2 IU/L and a Na ([…], time 14 day) of 141.4 meq/L. It also gave a PL ([…], time 14 day) of 157.4 mg/dL, an RALB ([…], time 14 day) of 4.3 g/dL and a TBIL ([…], time 14 day) of 0.2 mg/dL. The TC ([…], time 14 day) was 103 mg/dL, the TG ([…], time 14 day) was 43.4 mg/dL and the TP ([…], time 14 day) was 6.9 g/dL. For the same molecule, the gamma-GTP ([…], time 14 day) was 2.2 IU/L, the A/G ([…], time 28 day) was 2 and the ALP ([…], time 28 day) was 475.4 IU/L. The ALT ([…], time 28 day) was 34 IU/L, the AST ([…], time 28 day) was 58.4 IU/L and the BUN ([…], time 28 day) was 27.2 mg/dL. The CRE ([…], time 28 day) was 0.7 mg/dL, the Ca ([…], time 28 day) was 10.8 mg/dL and the Cl ([…], time 28 day) was 108.8 meq/L. The DBIL ([…], time 28 day) was 0.062 mg/dL, the GLC ([…], time 28 day) was 168.6 mg/dL and the IP ([…], time 28 day) was 5.4 mg/dL. The K ([…], time 28 day) was 4.3 meq/L, the LDH ([…], time 28 day) was 71.4 IU/L and the Na ([…], time 28 day) was 142.2 meq/L. It also gave a PL ([…], time 28 day) of 165.8 mg/dL, an RALB ([…], time 28 day) of 4.5 g/dL and a TBIL ([…], time 28 day) of 0.2 mg/dL. It also gave a TC ([…], time 28 day) of 105.4 mg/dL, a TG ([…], time 28 day) of 46.8 mg/dL and a TP ([…], time 28 day) of 6.8 g/dL. It also gave a gamma-GTP ([…], time 28 day) of 2.4 IU/L.
